Source: US6767890B1, “Peptides having anti-cancer and anti-inflammatory activity” (priority 1998, dated 2004)

Target: Ca++/Calmodulin Dep. PK II
Experiment: Ca++/Calmodulin Dep. PK II enzyme assay
Format: biochemical, rat
Conditions: historical value; read-out: ^1IC, (IC50 of reference compound)
Description: The peptide was further screened in vitro in a variety of enzyme and biochemical assays. Methods employed were adapted from the scientific literature to maximize reliability and reproducibility. The primary literature reference for each assay is listed in Table 11 opposite the results for each assay.
Results presented in Table 10, “Results,” are the average of duplicate determinations, unless otherwise noted.
Reference compounds were tested concurrently at 5 concentrations as an integral part of each assay to ensure the validity of the results obtained.
Enzyme assays were performed under conditions described in Table 8, “Experimental Conditions.”. The commercial suppliers and catalog numbers of substrates employed in this study are given in Table 7, “Material Sources.” The name, commercial source, and catalog numbers of concurrent reference compounds (controls) employed in this study are given in Table 9, “Reference Compound Data.” The reaction catalyzed by each enzyme is listed in Table 8, “Experimental Conditions.”
Biochemical assay results are presented in Table 10, as the percent inhibition of specific binding or activity, and unless noted are the average of duplicate tubes tested at each concentration.

How did the IC50 turn out when `CN1CCN(CCCN2c3ccccc3Sc3ccc(C(F)(F)F)cc32)CC1` [Trifluoperazine, reference compound] was run?
The IC50 was 27 µM.
